Converted amounts (≈) assume the structure as drawn. The source made the active and inactive calls. The calls are words filed in the database; no cut-off is given here. Non-standard residues stand in square brackets, D forms with d. Residues, ends and D or L forms follow the SMILES beside them. ξ: configuration not given here. ξP = O=C(O)C1CCCN1
Key:
[1] = tested on: Escherichia coli; assay: Bacteriostatic activity against Escherichia coli assessed as small intracellular vesicles at 8 times MIC in full muller hinton medium by transmission electron microscopic analysis; type: functional, organism-based
[2] = tested on: Klebsiella pneumoniae; assay: Bacteriostatic activity against Klebsiella pneumoniae at 8 times MIC in full muller hinton medium by Time-kill assay; type: functional, organism-based
[3] = tested on: Escherichia coli; assay: Bacteriostatic activity against Escherichia coli assessed as detachment of inner membrane from outer membrane by measuring a large void at 8 times MIC in full muller hinton medium by transmission electron microscopic analysis; type: functional, organism-based
[4] = tested on: Escherichia coli; assay: Bacteriostatic activity against Escherichia coli at 8 times MIC in full muller hinton medium by Time-kill assay; type: functional, organism-based
[5] = tested on: Klebsiella pneumoniae; assay: Bacteriostatic activity against Klebsiella pneumoniae assessed as small intracellular vesicles at 8 times MIC in full muller hinton medium by transmission electron microscopic analysis; type: functional, organism-based
[6] = tested on: Klebsiella pneumoniae; assay: Bacteriostatic activity against Klebsiella pneumoniae assessed as membrane perturbation at 8 times MIC in full muller hinton medium by transmission electron microscopic analysis; type: functional, organism-based
[7] = tested on: Klebsiella pneumoniae; assay: Bacteriostatic activity against Klebsiella pneumoniae assessed as detachment of inner membrane from outer membrane by measuring a large void at 8 times MIC in full muller hinton medium by transmission electron microscopic analysis; type: functional, organism-based
[8] = tested on: Escherichia coli; assay: Bacteriostatic activity against Escherichia coli assessed as membrane perturbation at 8 times MIC in full muller hinton medium by transmission electron microscopic analysis; type: functional, organism-based
[9] = tested on: Staphylococcus aureus; assay: Antimicrobial activity against methicillin-resistant Staphylococcus aureus COL incubated for 16 to 20 hrs in full muller hinton medium by broth microdilution method; type: functional; conditions: time 16-20 hrs
[10] = tested on: Pseudomonas aeruginosa; assay: Antibacterial activity against multidrug-resistant Pseudomonas aeruginosa PA14 4.18 harboring pmrB mutant incubated for 16 to 20 hrs in full muller hinton medium by broth microdilution method; type: functional; conditions: time 16-20 hrs
[11] = tested on: Pseudomonas aeruginosa; assay: Antibacterial activity against multidrug-resistant Pseudomonas aeruginosa PA14 incubated for 16 to 20 hrs in full muller hinton medium by broth microdilution method; type: functional; conditions: time 16-20 hrs
[12] = tested on: Pseudomonas aeruginosa; assay: Antibacterial activity against multidrug-resistant Pseudomonas aeruginosa PA14 4.13 harboring phoQ mutant incubated for 16 to 20 hrs in full muller hinton medium by broth microdilution method; type: functional; conditions: time 16-20 hrs
[13] = tested on: Pseudomonas aeruginosa; assay: Antibacterial activity against multidrug-resistant Pseudomonas aeruginosa PA14 2P4 harboring pmrB mutant incubated for 16 to 20 hrs in full muller hinton medium by broth microdilution method; type: functional; conditions: time 16-20 hrs
[14] = tested on: Pseudomonas aeruginosa; assay: Antibacterial activity against multidrug-resistant Pseudomonas aeruginosa clinical isolate ZEM9A incubated for 16 to 20 hrs in full muller hinton medium by broth microdilution method; type: functional; conditions: time 16-20 hrs
[15] = Hemolytic activity in human RBC incubated for 4 hrs; type: toxicity, cell-based; conditions: erythrocyte
[16] = tested on: Acinetobacter baumannii; assay: Antimicrobial activity against Acinetobacter baumannii ATCC 19606 incubated for 16 to 20 hrs in full muller hinton medium by broth microdilution method; type: functional; conditions: time 16-20 hrs
[17] = tested on: Klebsiella pneumoniae; assay: Antimicrobial activity against Klebsiella pneumoniae NCTC 418 incubated for 16 to 20 hrs in full muller hinton medium by broth microdilution method; type: functional; conditions: time 16-20 hrs
[18] = tested on: Pseudomonas aeruginosa; assay: Antimicrobial activity against Pseudomonas aeruginosa PAO1 incubated for 16 to 20 hrs in full muller hinton medium by broth microdilution method; type: functional; conditions: time 16-20 hrs
[19] = tested on: rRNA; assay: Binding affinity to [gamma32 P-ATP] labeled Escherichia coli MG1655 23S ribosomal RNA (5-CCCTTGGGACCTACTTC-3') at U2506 position assessed as increase in band intensity at 1 uM incubated for 2.5 hrs in full muller hinton medium by CMCT based gel electrophoresis; type: nucleic-acid assay
[20] = tested on: Klebsiella pneumoniae; assay: Antimicrobial activity against Klebsiella pneumoniae NCTC 418 incubated for 16 to 20 hrs in 12.5 % muller hinton medium by broth microdilution method; type: functional; conditions: time 16-20 hrs
[21] = tested on: Staphylococcus aureus; assay: Antimicrobial activity against methicillin-resistant Staphylococcus aureus COL incubated for 16 to 20 hrs in 12.5 % muller hinton medium by broth microdilution method; type: functional; conditions: time 16-20 hrs
[22] = tested on: Pseudomonas aeruginosa; assay: Antimicrobial activity against Pseudomonas aeruginosa PAO1 incubated for 16 to 20 hrs in 12.5 % muller hinton medium by broth microdilution method; type: functional; conditions: time 16-20 hrs
[23] = tested on: Escherichia coli; assay: Antimicrobial activity against Escherichia coli W3110 incubated for 16 to 20 hrs in 12.5 % muller hinton medium by broth microdilution method; type: functional; conditions: time 16-20 hrs

SMILES | Activity [1] | Activity [2] | Activity [3] | Activity [4] | Activity [5] | Activity [6] | Activity [7] | Activity [8] | MIC [9] | MHC [15] | MIC [16] | MIC [17] | MIC [18] | MIC [20] | MIC [22] | other results
CC[C@H]1OC(=O)[C@H](C)[C@@H](O[C@H]2C[C@@](C)(OC)[C@@H](O)[C@H](C)O2)[C@H](C)[C@@H](O[C@@H]2O[C@H](C)C[C@H](N(C)C)[C@H]2O)[C@](C)(O)C[C@@H](C)CN(C)[C@H](C)[C@@H](O)[C@]1(C)O | Active | Active | Active | Active | Active | Active; Few Membrane Perturbation Observed | Active | Active; Few Membrane Perturbation Observed | – | – | – | – | – | – | – | –
CC[C@H](C)[C@H](NC(=O)[C@@H](CCCNC(=N)N)NC(=O)[C@H](CCCNC(=N)N)NC(=O)[C@@H]1CCCN1C(=O)[C@@H]1CCCN1C(=O)[C@H](CCCNC(=N)N)NC(=O)[C@@H]1CCCN1C(=O)[C@H](CCCNC(=N)N)NC(=O)[C@@H]1CCCN1C(=O)[C@H](CC(C)C)NC(=O)[C@H](Cc1ccc(O)cc1)NC(=O)[C@@H]1CCCN1C(=O)[C@@H]1CCCN1C(=O)[C@H](CCCCN)NC(=O)[C@H](CC(=O)O)NC(=O)[C@@H](N)C(C)C)C(=O)N[C@@H](Cc1ccc(O)cc1)C(=O)N[C@@H](CC(N)=O)C(=O)N[C@H](CCCNC(=N)N)C(N)=O (H-VDKPPYLPRPRPPR[dR]IYN[dR]-NH2) | – | – | – | – | – | – | – | – | > 64 µg/mL | > 1000 µg/mL | – | – | – | – | – | MIC [10]: > 32 µg/mL; MIC [11]: > 32 µg/mL; MIC [12]: > 32 µg/mL; MIC [13]: > 64 µg/mL; MIC [14]: > 64 µg/mL
CC(C)C[C@H](NC(=O)[C@H](CC(C)C)NC(=O)[C@H](CC(C)C)NC(=O)[C@@H](CCCCN)NC(=O)[C@H](CC(C)C)NC(=O)[C@H](CC(C)C)NC(=O)[C@@H](CCCCN)NC(=O)[C@H](CC(C)C)NC(=O)[C@H](CC(C)C)NC(=O)[C@@H](CCCCN)NC(=O)[C@H](N)CCCCN)C(N)=O (H-[dK][dK]LL[dK]LL[dK]LLL-NH2) | Active | Active | Active | Active | Active | Active; Few Membrane Perturbation Observed | Active | Active; Few Membrane Perturbation Observed | – | 1000 µg/mL | 2.4 µg/mL (≈ 1.82 µM) | 8 µg/mL (≈ 6.05 µM) | 8 µg/mL (≈ 6.05 µM) | – | – | –
CC[C@@H](C)[C@@H](NC(=O)[C@@H](CCCNC(=N)N)NC(=O)[C@H](CCCNC(=N)N)NC(=O)[C@@H]1CCCN1C(=O)[C@@H]1CCCN1C(=O)[C@H](CCCNC(=N)N)NC(=O)[C@@H]1CCCN1C(=O)[C@H](CCCNC(=N)N)NC(=O)[C@@H]1CCCN1C(=O)[C@H](CC(C)C)NC(=O)[C@H](Cc1ccc(O)cc1)NC(=O)[C@@H]1CCCN1C(=O)[C@@H]1CCCN1C(=O)[C@H](CCCCN)NC(=O)[C@H](CC(=O)O)NC(=O)[C@@H](N)C(C)C)C(=O)N[C@H](Cc1ccc(O)cc1)C(=O)N[C@H](CC(N)=O)C(=O)N[C@H](CCCNC(=N)N)C(N)=O (H-VDKPPYLPRPRPPR[dR][dI][dY][dN][dR]-NH2) | Active | Active | Active | Active | Active | Active; Few Membrane Perturbation Observed | Active | Active; Few Membrane Perturbation Observed | > 64 µg/mL | > 1000 µg/mL | – | – | – | – | – | MIC [11]: > 64 µg/mL; MIC [13]: > 64 µg/mL; MIC [14]: > 64 µg/mL; Activity [19]: Active
CC[C@H](C)[C@H](NC(=O)[C@H](CCCNC(=N)N)NC(=O)[C@H](CCCNC(=N)N)NC(=O)[C@@H]1CCCN1C(=O)[C@@H]1CCCN1C(=O)[C@H](CCCNC(=N)N)NC(=O)[C@@H]1CCCN1C(=O)[C@H](CCCNC(=N)N)NC(=O)[C@@H]1CCCN1C(=O)[C@H](CC(C)C)NC(=O)[C@H](Cc1ccc(O)cc1)NC(=O)[C@H]1CCCN1C(=O)[C@H]1CCCN1C(=O)[C@H](CCCCN)NC(=O)[C@H](CC(=O)O)NC(=O)[C@@H](N)C(C)C)C(=O)N[C@@H](Cc1ccc(O)cc1)C(=O)N[C@@H](CC(N)=O)C(=O)N[C@@H](CCCNC(=N)N)C(N)=O (H-VDK[dP][dP]YLPRPRPPRRIYNR-NH2) | – | – | – | – | – | – | – | – | > 64 µg/mL | > 1000 µg/mL | > 64 µg/mL | > 64 µg/mL | > 64 µg/mL | > 16 µg/mL | > 16 µg/mL | MIC [21]: > 64 µg/mL
CC[C@H](C)[C@H](NC(=O)[C@H](CCCNC(=N)N)NC(=O)[C@H](CCCNC(=N)N)NC(=O)[C@@H]1CCCN1C(=O)[C@@H]1CCCN1C(=O)[C@H](CCCNC(=N)N)NC(=O)[C@@H]1CCCN1C(=O)[C@H](CCCNC(=N)N)NC(=O)[C@@H]1CCCN1C(=O)[C@H](CC(C)C)NC(=O)[C@H](Cc1ccc(O)cc1)NC(=O)[C@@H]1CCCN1C(=O)[C@H]1CCCN1C(=O)[C@H](CCCCN)NC(=O)[C@H](CC(=O)O)NC(=O)[C@@H](N)C(C)C)C(=O)N[C@@H](Cc1ccc(O)cc1)C(=O)N[C@@H](CC(N)=O)C(=O)N[C@@H](CCCNC(=N)N)C(N)=O (H-VDK[dP]PYLPRPRPPRRIYNR-NH2) | – | – | – | – | – | – | – | – | > 64 µg/mL | > 1000 µg/mL | – | – | > 64 µg/mL | – | > 16 µg/mL | –
CC[C@H](C)[C@H](NC(=O)[C@H](CCCNC(=N)N)NC(=O)[C@H](CCCNC(=N)N)NC(=O)[C@@H]1CCCN1C(=O)[C@@H]1CCCN1C(=O)[C@H](CCCNC(=N)N)NC(=O)[C@@H]1CCCN1C(=O)[C@H](CCCNC(=N)N)NC(=O)[C@@H]1CCCN1C(=O)[C@H](CC(C)C)NC(=O)[C@H](Cc1ccc(O)cc1)NC(=O)C1CCCN1C(=O)C1CCCN1C(=O)[C@H](CCCCN)NC(=O)[C@H](CC(=O)O)NC(=O)[C@@H](N)C(C)C)C(=O)N[C@@H](Cc1ccc(O)cc1)C(=O)N[C@@H](CC(N)=O)C(=O)N[C@@H](CCCNC(=N)N)C(N)=O (stereo partly specified) (H-VDK[ξP][ξP]YLPRPRPPRRIYNR-NH2) | – | – | – | – | – | – | – | – | > 64 µg/mL | > 1000 µg/mL | – | – | > 64 µg/mL | 8 µg/mL (≈ 3.35 µM) | > 16 µg/mL | MIC [23]: 4 µg/mL (≈ 1.67 µM)
CC[C@H](C)[C@H](NC(=O)[C@H](CCCNC(=N)N)NC(=O)[C@H](CCCNC(=N)N)NC(=O)[C@@H]1CCCN1C(=O)[C@@H]1CCCN1C(=O)[C@H](CCCNC(=N)N)NC(=O)[C@@H]1CCCN1C(=O)[C@H](CCCNC(=N)N)NC(=O)[C@@H]1CCCN1C(=O)[C@H](CC(C)C)NC(=O)[C@H](Cc1ccc(O)cc1)NC(=O)[C@H]1CCCN1C(=O)[C@@H]1CCCN1C(=O)[C@H](CCCCN)NC(=O)[C@H](CC(=O)O)NC(=O)[C@@H](N)C(C)C)C(=O)N[C@@H](Cc1ccc(O)cc1)C(=O)N[C@@H](CC(N)=O)C(=O)N[C@@H](CCCNC(=N)N)C(N)=O (H-VDKP[dP]YLPRPRPPRRIYNR-NH2) | – | – | – | – | – | – | – | – | > 64 µg/mL | > 1000 µg/mL | > 64 µg/mL | > 64 µg/mL | > 64 µg/mL | > 16 µg/mL | > 16 µg/mL | –

From ChEMBL document CHEMBL6083262, “Stereorandomized Oncocins with Preserved Ribosome Binding and Antibacterial Activity” (J Med Chem, 2024)
